From patent US9790202B2, “Anthranilamide derivatives as pesticides” (priority 2010, dated 2017)

What was measured:
[1] = tested on: larvae of the mustard beetle (Phaedon cochleariae); test: Phaedon test (PHAECO spray treatment), Use Example 6, comparison with prior art; format: in vivo; conditions: 168 h, 7 d
Experimental: (§1) Phaedon Test (PHAECO Spray Treatment)
Solvent: 78.0 parts by weight of acetone
1.5 parts by weight of dimethylformamide
(§2) Emulsifier: 0.5 part by weight of alkylaryl polyglycol ether
To produce an appropriate active ingredient formulation, 1 part by weight of active ingredient is mixed with the stated amounts of solvent and emulsifier, and the concentrate is diluted with emulsifier-containing water to the desired concentration. Leaf discs of Chinese cabbage (Brassica pekinensis) are sprayed with an active ingredient formulation of the desired concentration and, after drying, populated with larvae of the mustard beetle (Phaedon cochleariae).
After the desired period of time, the effect in % is determined. 100% means that all beetle larvae have been killed; 0% means that no beetle larvae have been killed.

[2] = log P determination by HPLC on reversed-phase columns (C 18), acidic range; format: physicochemical; conditions: for chromatographic logP: pH 2.7, LOGP (HCOOH)
Experimental: The log P values reported in the table above and in the Preparation Examples were determined in accordance with EEC Directive 79/831 Annex V.A8 by HPLC (High Performance Liquid Chromatography) on reversed-phase columns (C 18), with the following methods:
The LC-MS determination in the acidic range is effected at pH 2.7 using 0.1% aqueous formic acid and acetonitrile (contains 0.1% formic acid) as eluents, linear gradient from 10% acetonitrile to 95% acetonitrile
The calibration was effected with unbranched alkan-2-ones (having 3 to 16 carbon atoms) with known log P values (log P values determined on the basis of the retention times by linear interpolation between two successive alkanones).

[3] = tested on: green peach aphid (Myzus persicae); test: Myzus test (MYZUPE spray treatment); format: in vivo; conditions: in Brassica rapa, foliar, 144 h, read-out: efficacy in % (aphids killed)
Experimental: Myzus Test (MYZUPE Spray Treatment)
Solvent: 78 parts by weight of acetone 1.5 parts by weight of dimethylformamide
as §2
(§3) To produce an appropriate active ingredient formulation, 1 part by weight of active ingredient is mixed with the stated amounts of solvent and emulsifier, and the concentrate is diluted with emulsifier-containing water to the desired concentration.
Leaf discs of Chinese cabbage (Brassica pekinensis) infested by all stages of the green peach aphid (Myzus persicae) are sprayed with an active ingredient formulation of the desired concentration.
After 6 days, the efficacy in % is determined 100% means that all aphids have been killed; 0% means that no aphids have been killed.

[4] = tested on: caterpillars of the armyworm (Spodoptera frugiperda); test: Spodoptera frugiperda test (SPODFR spray treatment); format: in vivo; conditions: for pest or weed control at 100 g/ha: Spodoptera frugiperda, in Zea mays, foliar, 168 h, read-out: efficacy in % (caterpillars killed)
Experimental: Spodoptera frugiperda Test (SPODFR Spray Treatment)
(§4) Solvent: 78.0 parts by weight of acetone 1.5 parts by weight of dimethylformamide
as §2, §3
Leaf discs of maize (Zea mays) are sprayed with an active ingredient formulation of the desired concentration and, after drying, populated with caterpillars of the armyworm (Spodoptera frugiperda).
After 7 days, the efficacy in % is determined 100% means that all caterpillars have been killed; 0% means that no caterpillars have been killed.

[5] = tested on: Lucilia cuprina 1st instar larvae; test: Lucilia cuprina test (LUCICU); format: in vivo; conditions: 100 ppm, treated horsemeat, after 48 h
Experimental: Lucilia cuprina Test (LUCICU)
Species: Lucilia cuprina 1st larval stage (age: 24 hours)
(§5) Solvent: dimethyl sulphoxide
(§6) To prepare an appropriate active ingredient formulation, 10 mg of active ingredient are mixed with 0.5 ml of dimethyl sulphoxide and the concentrate is diluted with water to the desired concentration.
Vessels containing 1 cm^3 of horsemeat which had been treated with the active ingredient formulation are populated with about 20 Lucilia cuprina 1st instar larvae.
After 48 h, the kill in % is determined 100% means that all larvae have been killed; 0% means that no larvae have been killed.

adult Musca domestica = test: Musca domestica test (MUSCDO); format: in vivo; conditions: 100 ppm, treated sponge, after 2 days
Experimental: Musca domestica Test (MUSCDO)
as §5, §6
Vessels containing a sponge treated with the active ingredient preparation of the desired concentration are populated with 10 adult Musca domestica.
After 2 days, the kill in % is determined 100% means that all flies have been killed; 0% means that no flies have been killed.

[6] = tested on: larvae of the mustard beetle (Phaedon cochleariae); test: Phaedon test (PHAECO spray treatment), Use Example 2; format: in vivo; conditions: in Brassica rapa, foliar, 168 h, read-out: efficacy in % (beetle larvae killed)
Experimental: as §1, §4, §2, §3
Leaf discs of Chinese cabbage (Brassica pekinensis) are sprayed with an active ingredient formulation of the desired concentration and, after drying, populated with larvae of the mustard beetle (Phaedon cochleariae).
After 7 days, the efficacy in % is determined 100% means that all beetle larvae have been killed; 0% means that no beetle larvae have been killed.

Row | Structure (SMILES) | larval mortality at 20 g/ha [1] [%] | LOGP (HCOOH) ([2]; pH 2.7) | pest or weed control at 100 g/ha [3] [%] | pest or weed control at 100 g/ha [4] [%] | kill in % (larvae killed) [5] [%] | kill in % (flies killed) (adult Musca domestica) [%] | chromatographic logP [2] | pest or weed control at 100 g/ha [6] [%] | efficacy in % (caterpillars killed) ([4]; 100 g/ha, spray on maize leaf discs, after 7 days) [%]
1 | CNC(=O)c1cc(C)cc(C)c1NC(=O)c1cc(Cn2nnc(C(F)(F)F)n2)nn1-c1ncccc1Cl [Comparative Example, reference compound] | 0 | – | – | – | – | – | – | – | –
2 | CC(=O)c1cc(C)c(NC(=O)c2cc(Cn3nnc(C(F)(F)F)n3)nn2-c2ncccc2Cl)c(C(=O)NC(C)(C)C)c1 [Compound 1] | – | 3.26 | 100 | 100 | 100 | 100 | – | – | –
3 | CNC(=O)c1cc(C(=O)OC)cc(C)c1NC(=O)c1cc(Cn2nnc(C(F)(F)F)n2)nn1-c1ncccc1Cl [Compound 2] | – | – | 90 | 100 | 100 | 90 | 2.77 | 100 | –
4 | COC(=O)c1cc(C)c(NC(=O)c2cc(Cn3nnc(C(F)(F)F)n3)nn2-c2ncccc2Cl)c(C(=O)NC(C)C)c1 [Compound 3] | – | – | – | 100 | 100 | – | 3.21 | 100 | –
5 | COC(=O)c1cc(C)c(NC(=O)c2cc(Cn3nnc(C(F)(F)F)n3)nn2-c2ncccc2Cl)c(C(=O)NC(C)(C)C)c1 [Compound 4] | – | – | – | 100 | 100 | 100 | 3.52 | 100 | –
6 | COC(=O)c1cc(C)c(NC(=O)c2cc(Cn3nnc(C(F)(F)F)n3)nn2-c2ncccc2Cl)c(C(N)=O)c1 [Compound 5] | – | – | 90 | 100 | 100 | – | 2.56 | 100 | –
7 | CC(=O)c1cc(C)c(NC(=O)c2cc(Cn3nnc(C(F)(F)F)n3)nn2-c2ncccc2Cl)c(C(=O)NC(C)(C)C)c1 [Compound 6] | – | – | – | – | 100 | 90 | 2.87 | – | 100
8 | C/C(=N\O)c1cc(C)c(NC(=O)c2cc(Cn3nnc(C(F)(F)F)n3)nn2-c2ncccc2Cl)c(C(=O)NC(C)(C)C)c1 [Compound 7] | – | – | 100 | 100 | 100 | – | 3 | – | –
9 | CNC(=O)c1cc(C(N)=S)cc(C)c1NC(=O)c1cc(Cn2nnc(C(F)(F)F)n2)nn1-c1ncccc1Cl [Compound 23] | 100 | – | 100 | 100 | – | – | 2.26 | 100 | –
